Test results: ChEMBL document CHEMBL1133283, “Arylsulfonyl-N,N-diethyl-dithiocarbamates: a novel class of antitumor agents” (Bioorg Med Chem Lett, 2000)

How the values were obtained:
Carbonic anhydrase 2 = Carbonic anhydrase 2 (Homo sapiens, UniProt P00918); assay: Binding affinity of compound against human Carbonic anhydrase II
UO-31 = assay: In vitro growth inhibition of compound was determined against UO-31 cell lines of Renal cancer; assay type: functional; details: Homo sapiens
SNB-75 = assay: In vitro growth inhibition of compound was determined against SNB-75 cell lines of CNS cancer; assay type: functional; details: Homo sapiens
SN12C = assay: In vitro growth inhibition of compound was determined against SN12C cell lines of Renal cancer; assay type: functional; details: Homo sapiens
A549 = assay: In vitro growth inhibition of compound was determined against A549/ATCC cell lines of non-small cell lung cancer; assay type: functional; details: Homo sapiens
HOP-62 = assay: In vitro growth inhibition of compound was determined against HOP-62 cell lines of non-small cell lung cancer; assay type: functional; details: Homo sapiens
ACHN = assay: In vitro growth inhibition of compound was determined against ACHN cell lines of Renal cancer; assay type: functional; details: Homo sapiens
DU-145 = assay: In vitro growth inhibition of compound was determined against DU-145 cell lines of Prostate cancer; assay type: functional; details: Homo sapiens
U-251 = assay: In vitro growth inhibition of compound was determined against U251 cell lines of CNS cancer; assay type: functional; details: Homo sapiens
LOX IMVI = assay: In vitro growth inhibition of compound was determined against LOX IMVI cell lines of Melanoma; assay type: functional; details: Homo sapiens
HCT-15 = assay: In vitro growth inhibition of compound was determined against HCT-15 cell lines of colon cancer; assay type: functional; details: Homo sapiens
SF-268 = assay: In vitro growth inhibition of compound was determined against SF-268 cell lines of CNS cancer; assay type: functional; details: Homo sapiens
SF-295 = assay: In vitro growth inhibition of compound was determined against SF-295 cell lines of CNS cancer; assay type: functional; details: Homo sapiens
Malme-3M = assay: In vitro growth inhibition of compound was determined against MALME-3M cell lines of Melanoma; assay type: functional; details: Homo sapiens
SK-MEL-28 = assay: In vitro growth inhibition of compound was determined against SK-MEL-28 cell lines of Melanoma; assay type: functional; details: Homo sapiens
NCI-H522 = assay: In vitro growth inhibition of compound was determined against NCI-H522 cell lines of non-small cell lung cancer; assay type: functional; details: Homo sapiens
RPMI-8226 = assay: In vitro growth inhibition of compound was determined against RPMI-8226 cell lines of Leukemia; assay type: functional; details: Homo sapiens
OVCAR-4 = assay: In vitro growth inhibition of compound was determined against OVCAR-4 cell lines of Ovarian cancer; assay type: functional; details: Homo sapiens
SK-MEL-5 = assay: In vitro growth inhibition of compound was determined against SK-MEL-5 cell lines of Melanoma; assay type: functional; details: Homo sapiens
CCRF-CEM = assay: In vitro growth inhibition of compound was determined against CCRF-CEM cell lines of Leukemia; assay type: functional; details: Homo sapiens
CAKI-1 = assay: In vitro growth inhibition of compound was determined against CAKI-1 cell lines of Renal cancer; assay type: functional; details: Homo sapiens
M14 = assay: In vitro growth inhibition of compound was determined against M14 cell lines of Melanoma; assay type: functional; details: Homo sapiens
HOP-92 = assay: In vitro growth inhibition of compound was determined against HOP-92 cell lines of non-small cell lung cancer; assay type: functional; details: Homo sapiens
HCT-116 = assay: In vitro growth inhibition of compound was determined against HCT116 cell lines of colon cancer; assay type: functional; details: Homo sapiens
TK-10 = assay: In vitro growth inhibition of compound was determined against TK-10 cell lines of Renal cancer; assay type: functional; details: Homo sapiens
MDA-MB-435 = assay: In vitro growth inhibition of compound was determined against MDA-MB-435 cell lines of Breast cancer; assay type: functional; details: Homo sapiens
Hs-578T = assay: In vitro growth inhibition of compound was determined against Hs 578.T cell lines of Breast cancer; assay type: functional; details: Homo sapiens
MDA-MB-231 = assay: In vitro growth inhibition of compound was determined against MDA-MB-231/ATCC cell lines of Breast cancer; assay type: functional; details: Homo sapiens
OVCAR-3 = assay: In vitro growth inhibition of compound was determined against OVCAR-3 cell lines of Ovarian cancer; assay type: functional; details: Homo sapiens
HT-29 = assay: In vitro growth inhibition of compound was determined against HT-29 cell lines of colon cancer; assay type: functional; details: Homo sapiens
MOLT-4 = assay: In vitro growth inhibition of compound was determined against MOLT-4 cell lines of Leukemia; assay type: functional; details: Homo sapiens
BT-549 = assay: In vitro growth inhibition of compound was determined against BT-549 cell lines of Breast cancer; assay type: functional; details: Homo sapiens
MDA-N = assay: In vitro growth inhibition of compound was determined against MDA-Ncell lines of Breast cancer; assay type: functional; details: Homo sapiens
HL-60 = assay: In vitro growth inhibition of compound was determined against HL-60(TB) cell lines of Leukemia; assay type: functional; details: Homo sapiens
IGROV-1 = assay: In vitro growth inhibition of compound was determined against IGROVI cell lines of Ovarian cancer; assay type: functional; details: Homo sapiens
NCI/ADR-RES = assay: In vitro growth inhibition of compound was determined against NCI/ADR-RES cell lines of Breast cancer; assay type: functional; details: Homo sapiens
NCI-H226 = assay: In vitro growth inhibition of compound was determined against NCI-H226 cell lines of non-small cell lung cancer; assay type: functional; details: Homo sapiens
KM12 = assay: In vitro growth inhibition of compound was determined against KM12 cell lines of colon cancer; assay type: functional; details: Homo sapiens
786-0 = assay: In vitro growth inhibition of compound was determined against […] cell lines of Renal cancer; assay type: functional; details: Homo sapiens
OVCAR-8 = assay: In vitro growth inhibition of compound was determined against OVCAR-8 cell lines of Ovarian cancer; assay type: functional; details: Homo sapiens
UACC-257 = assay: In vitro growth inhibition of compound was determined against UACC-257 cell lines of Melanoma; assay type: functional; details: Homo sapiens
COLO 205 = assay: In vitro growth inhibition of compound was determined against COLO-205 cell lines of colon cancer; assay type: functional; details: Homo sapiens
PC-3 = assay: In vitro growth inhibition of compound was determined against PC-3 cell lines of Prostate cancer; assay type: functional; details: Homo sapiens
MCF7 = assay: In vitro growth inhibition of compound was determined against MCF-7 cell lines of Breast cancer; assay type: functional; details: Homo sapiens
RXF 393 = assay: In vitro growth inhibition of compound was determined against RXF393 cell lines of Renal cancer; assay type: functional; details: Homo sapiens
SR = assay: In vitro growth inhibition of compound was determined against SR cell lines of Leukemia; assay type: functional; details: Homo sapiens
K562 = assay: In vitro growth inhibition of compound was determined against K-562 cell lines of Leukemia; assay type: functional; details: Homo sapiens
SW-620 = assay: In vitro growth inhibition of compound was determined against SW-620 cell lines of colon cancer; assay type: functional; details: Homo sapiens
HCC 2998 = assay: In vitro growth inhibition of compound was determined against HCC2998 cell lines of colon cancer; assay type: functional; details: Homo sapiens
SF-539 = assay: In vitro growth inhibition of compound was determined against SF-539 cell lines of CNS cancer; assay type: functional; details: Homo sapiens

NS(=O)(=O)c1ccc(CNSC(=S)N2CCOCC2)cc1
Ki (Carbonic anhydrase 2): 0.035 µM

CCN(CC)C(=S)SS(=O)(=O)c1ccccc1[N+](=O)[O-]
GI50 (UO-31): 13 µM
GI50 (SNB-75): 76 µM
GI50 (SN12C): 18 µM
GI50 (A549): 3 µM
GI50 (HOP-62): 20 µM
GI50 (ACHN): 24 µM
GI50 (DU-145): 19 µM
GI50 (U-251): 13 µM
GI50 (LOX IMVI): 16 µM
GI50 (HCT-15): 34 µM
GI50 (SF-268): 26 µM
GI50 (SF-295): 32 µM
GI50 (Malme-3M): 10 µM
GI50 (SK-MEL-28): 13 µM
GI50 (NCI-H522): 0.08 µM
GI50 (RPMI-8226): 15 µM
GI50 (OVCAR-4): 23 µM
GI50 (SK-MEL-5): 3 µM
GI50 (CCRF-CEM): 2.5 µM
GI50 (CAKI-1): 17 µM
GI50 (M14): 11 µM
GI50 (HOP-92): 14 µM
GI50 (HCT-116): 15 µM
GI50 (TK-10): 29 µM
GI50 (MDA-MB-435): 18 µM
GI50 (Hs-578T): 29 µM
GI50 (MDA-MB-231): 16 µM
GI50 (OVCAR-3): 22 µM
GI50 (HT-29): 14 µM
GI50 (MOLT-4): 0.4 µM
GI50 (BT-549): 26 µM
GI50 (MDA-N): 19 µM
GI50 (HL-60): 0.2 µM
GI50 (IGROV-1): 0.5 µM
GI50 (NCI/ADR-RES): 30 µM
GI50 (NCI-H226): 36 µM
GI50 (KM12): 12 µM
GI50 (786-0): 19 µM
GI50 (OVCAR-8): 18 µM
GI50 (UACC-257): 17 µM
GI50 (COLO 205): 28 µM
GI50 (PC-3): 54 µM
GI50 (MCF7): 25 µM
GI50 (RXF 393): 15 µM
GI50 (SR): 0.3 µM
GI50 (K562): 11 µM
GI50 (SW-620): 15 µM
GI50 (HCC 2998): 24 µM

CCN(CC)C(=S)SS(=O)(=O)c1ccc(N)cc1
GI50 (UO-31): 80 µM
GI50 (SNB-75): 48 µM
GI50 (SN12C): > 100 µM
GI50 (A549): 7 µM
GI50 (HOP-62): 33 µM
GI50 (ACHN): 61 µM
GI50 (DU-145): > 100 µM
GI50 (U-251): > 100 µM
GI50 (LOX IMVI): > 100 µM
GI50 (HCT-15): > 100 µM
GI50 (SF-268): > 100 µM
GI50 (SF-295): > 100 µM
GI50 (Malme-3M): 46 µM
GI50 (SK-MEL-28): > 100 µM
GI50 (NCI-H522): 1 µM
GI50 (RPMI-8226): 22 µM
GI50 (OVCAR-4): > 100 µM
GI50 (SK-MEL-5): 13 µM
GI50 (CCRF-CEM): > 100 µM
GI50 (CAKI-1): 22 µM
GI50 (M14): 63 µM
GI50 (HOP-92): 5 µM
GI50 (HCT-116): > 100 µM
GI50 (TK-10): > 100 µM
GI50 (MDA-MB-435): > 100 µM
GI50 (Hs-578T): 83 µM
GI50 (MDA-MB-231): > 100 µM
GI50 (OVCAR-3): > 100 µM
GI50 (MOLT-4): 2 µM
GI50 (BT-549): > 100 µM
GI50 (MDA-N): 65 µM
GI50 (HL-60): > 100 µM
GI50 (IGROV-1): 5 µM
GI50 (NCI/ADR-RES): > 100 µM
GI50 (NCI-H226): 98 µM
GI50 (KM12): 22 µM
GI50 (786-0): 3 µM
GI50 (OVCAR-8): > 100 µM
GI50 (UACC-257): > 100 µM
GI50 (COLO 205): > 100 µM
GI50 (PC-3): 90 µM
GI50 (MCF7): 5 µM
GI50 (RXF 393): 22 µM
GI50 (SR): 3 µM
GI50 (K562): 34 µM
GI50 (SW-620): > 100 µM
GI50 (HCC 2998): 8 µM
GI50 (SF-539): 21 µM

CCN(CC)C(=S)SS(=O)(=O)c1ccc([N+](=O)[O-])cc1
GI50 (UO-31): 21 µM
GI50 (SNB-75): 77 µM
GI50 (SN12C): 27 µM
GI50 (A549): 1 µM
GI50 (HOP-62): 32 µM
GI50 (ACHN): 36 µM
GI50 (DU-145): 27 µM
GI50 (U-251): 14 µM
GI50 (LOX IMVI): 17 µM
GI50 (HCT-15): 52 µM
GI50 (SF-268): > 100 µM
GI50 (SF-295): 59 µM
GI50 (Malme-3M): 14 µM
GI50 (SK-MEL-28): 19 µM
GI50 (NCI-H522): 0.02 µM
GI50 (RPMI-8226): 12 µM
GI50 (OVCAR-4): 45 µM
GI50 (SK-MEL-5): 2 µM
GI50 (CAKI-1): 18 µM
GI50 (M14): 15 µM
GI50 (HOP-92): 4 µM
GI50 (HCT-116): 5 µM
GI50 (TK-10): 43 µM
GI50 (MDA-MB-435): 23 µM
GI50 (Hs-578T): > 100 µM
GI50 (MDA-MB-231): 26 µM
GI50 (OVCAR-3): 35 µM
GI50 (HT-29): 22 µM
GI50 (BT-549): 36 µM
GI50 (MDA-N): 30 µM
GI50 (NCI/ADR-RES): 48 µM
GI50 (NCI-H226): 83 µM
GI50 (KM12): 11 µM
GI50 (786-0): 16 µM
GI50 (OVCAR-8): 20 µM
GI50 (UACC-257): 24 µM
GI50 (COLO 205): 19 µM
GI50 (MCF7): 6 µM
GI50 (RXF 393): 16 µM
GI50 (SR): 0.1 µM
GI50 (K562): 19 µM
GI50 (SW-620): 18 µM
GI50 (HCC 2998): 94 µM
GI50 (SF-539): 20 µM
